The values below come from publication PMC9733060, “Novel alendronate-CGS21680 conjugate reduces bone resorption and induces new bone formation in post-menopausal osteoporosis and inflammatory osteolysis mouse models” (Arthritis Research & Therapy, 2022).

The structures appear in SMILES notation. Where two headings read alike, the source gives them in different places. Marks after values point to notes of the source that are not given here.

Series [1] concerns UHMWPE-induced osteolytic mice (WT). Briefly: UHMWPE wear particle-induced osteolysis (OL) in WT mice calvaria. The class given is in vivo, mouse. The note with it: doses <10mg/kg/week, data not shown.
Series [2] deals with human primary osteoclasts. Details: method as in PMID 23647065, PMID 25573752. The note with it: previously demonstrated; cited from earlier work.
In series [3] the test system is ovariectomy-induced osteoporotic mice. The class given is in vivo. The note with it: μCT, mean ± SEM, 10 mg/kg weekly IP, 9 weeks.
For series [4] the following is noted: cited from earlier work.
The subject of series [5] is human primary osteoclasts. Put plainly: human primary osteoclast differentiation (RANKL, TRAP staining). It counts as cell-based. The note with it: 0.001-10 μM, 7 days, 30 ng/mL RANKL. On the procedure: Human bone marrow was obtained from 4 OA patients who underwent hip replacement surgery and all protocols were approved by the NYU School of Medicine’s IRB. Precursor cells were flushed out from femoral head with DMEM media with 10% fetal bovine serum (FBS), and 100 U/ml of penicillin and streptomycin (Lonza, Belgium) in sterile conditions and incubated for 48h non-adherent cells were collected and differentiated to osteoclasts and adherents cell were differentiated to osteoblasts as previously described.
Osteoclast differentiation was assessed by TRAP staining by incubating PFA fixed samples with TRAP buffer (0.1M acetate buffer, 0.3M sodium tartrate, 10mg/ml Naphthol AS-MX phosphate, 0.1% Triton X-100, 0.3mg/ml Fast Red Violet LB (Sigma-Aldrich, St. Louis, MO, USA)) for 10 min. Images were taken in a Leica (Morrisville, NC, USA) inverted microscope.

With `CCNC(=O)[C@H]1O[C@@H](n2cnc3c(N)nc(NCCc4ccc(CCC(=O)O)cc4)nc32)[C@H](O)[C@@H]1O` [CGS21680, 2-[p-(2-carboxyethyl)-phenethylamino]-5'-N-ethylcarboxamido adenosine], the “effect on bone density in the affected areas” value in series [1] is “none of the doses tested <10mg/kg/week had any effect on bone density”.

As for `Nc1nc(NCCc2ccc(O)cc2)nc2nc(-c3ccco3)nn12` [ZM21385], the “effect on osteoclast differentiation” value in series [2] is given as “increases osteoclast differentiation”.

Turning to `NCCCC(O)(P(=O)(O)O)P(=O)(O)O` [Alendronate, alendronic acid], in series [3] (L5 vertebra trabecular bone), the BS/BV is 71.26 ± 2.80* 1/mm, the BV/TV is 12.34 ± 0.74 %, the Tb.N is reported as 2.60 ± 0.21 * 1/mm and the Tb.Pf is on record as 13.73 ± 1.23 # 1/mm. Moreover, in series [3] (L5 vertebra trabecular bone), the Tb.Sp is given as 0.298 ± 0.012 μm and the Tb.Th stood at 0.047 ± 0.002 μm. Moreover, in series [3] (femur cortical bone), the BV is 0.442 ± 0.014 * mm^3, the BV/TV was 44.50 ± 1.03 and the TV is on record as 0.994 ± 0.042 mm^3. Also, in series [3] (femur trabecular bone), the BS/BV was 89.18 ± 4.61 1/mm, the BV/TV came out at 0.771 ± 0.210 %, the Tb.N is listed as 0.164 ± 0.043 # 1/mm and the Tb.Pf is on record as 37.43 ± 2.48 1/mm. In series [3] (femur trabecular bone), the Tb.Sp is given as 0.702 ± 0.100 # μm and the Tb.Th amounted to 0.0468 ± 0.0014 μm. Moreover, in series [4], the “time for kidneys to excrete the amount not taken up by bone tissues” value was at most 24 h. The “elimination from bone tissue” value in series [4] (humans) is “up to 12 years”. Moreover, the “inhibition of osteoclast differentiation (anti-osteoclastogenic properties)” value in series [5] is reported as “more potent than AlenP”.
